Entries after “also recorded” stand apart in the source; their conditions may differ.

Results on five molecules are retold here after patent US20090203646A1, “USE OF SODIUM NARCISTATIN FOR REDUCING INTERNAL ADHESIONS AND FIBROSIS” (Sun Health Research Institute, priority 2008, published 2009).

The subject of data set [1] is intraperitoneal adhesion formation. The conditions noted are these: after surgery; cited from earlier work.
Another data set has as its system tumor growth. The conditions noted are these: cited from earlier work.
For the next data set, the system named is Japanese encephalitis. As to conditions: flavivvirus infection; cited from earlier work.
The subject of data set [2] is Encephalitozoan intestinalis. As to conditions: cited from earlier work.
Another data set has as its system arthritic rats. As to the kind of experiment: Tolerability of the drug in arthritic rats. It is filed as in vivo, Lewis rats. The source says: While there is variability in the severity of disease development between the batches of adjuvant, there is very little within batch variability. All animals in each experiment were challenged with the same preparation of adjuvant. All animals in this experiment that received CFA developed arthritis from this adjuvant preparation. The arthritis disease pathology that developed in both experiments was the same in onset and severity.

Data set [3] deals with Spleen cells treated with the T-cell dependent mitogen, Con A. As to the kind of experiment: Cytokine production by spleen cells treated with Con A (ELISA). In kind it is cell-based, Lewis rats. The protocol: (§1) Immune Cell Cytokine Profile Assessment: A second experiment was completed to determined whether the adhesion reducing action of sodium narcistatin could be due to altering immune cell pro-inflammatory cytokine profiles known to […] adhesion formation. Spleen cells were cultured from young adult Lewis rats and treated in vitro with either Con A or LPS, T or B cell mitogen, respectively. Cultures with and without Con A or LPS were then treated with sodium narcistatin (0, 1, or 10 μg/ml). Cultures were incubated for 24 h at 37° C. After 24 h, supernatants were collected and cytokines were assessed using cytokine specific ELISA assays.
Cell Culture: Spleens were aseptically removed into Hank's balanced salt solution (HBSS). The spleens were placed in a stomacher bag and homogenized for 30 seconds. Spleen cells were triturated with a 10 ml pipette then washed with an additional 10 ml of HBSS and passed through a nylon mesh (Marsh Industries) to remove the extraneous connective tissue. The collected cells were centrifuged and resuspended in 5 ml of a NH4Cl hypotonic buffer for 3 min to lyse the red blood cells. The cells were washed 2× with 10 ml HBSS, centrifuged and resuspended into complete RPMI 1640 media supplemented with 5% fetal calf serum and 1% antibiotic/antimycotic.
Cultures for Cytokine Analysis: The prepared cells were counted using a hemocytometer, then brought to the concentration of 2×10^6 cells/ml. Two ml of the cell preparation were plated into 24 well plates (Falcon: Oxnard, Calif.), in the absence or presence of mitogen and in placed in an incubator 7% CO2, 37° C., for 24 h. After 24 h the culture supernatants were harvested and placed in the freezer at −70° C. until ELISA assay.
Cytokine Production: Duo sets for the detection of IL-1, IL-2, IL-4, IL-10, IFN-γ and TNF-α were obtained from R & D Systems and sandwich ELISAs were used to measure the amount cytokine released into the culture media. High binding microtiter 96-well plates were pre-coated with 100 μl of capture antibody in coating buffer for IL-1, IL-2, IL-4, IL-10, IFN-γ and TNF-α (0.15 M phosphate buffer, pH 7.4). The plates were sealed with plate film (Denville Scientific: South Plainfield, N.J.) and placed at 4° C. overnight. […]
(§2) After color development the plates were stopped with addition of 1N sulfuric acid. Unknown sample cytokine levels were determined through comparison with a standard curve present on each plate using an ELISA reader (Ceres 900 HDI: Bio Tek Instruments Incorporated: Winooski, Vt.). The concentrations were averaged for each treatment group at each time point, expressed as mean±SEM in ng/ml, and subjected to a one-way ANOVA (p<0.05) with Bonferroni post-hoc testing.
A general note: In an ELISA, binding on a coated surface is turned into a signal by an enzyme label.

For data set [4], the system named is Spleen cells treated with the B-cell dependent mitogen, LPS. As to the kind of experiment: Cytokine production by spleen cells treated with LPS (ELISA). In kind it is cell-based, Lewis rats. As to conditions: 1 or 10 μg/ml, 24 h. As for the experimental part:
as §1
Cell Culture: Spleens were aseptically removed into Hank's balanced salt solution (HBSS). […]
Cultures for Cytokine Analysis: The prepared cells were counted using a hemocytometer, then brought to the concentration of 2×10^6 cells/ml. […]
as §2

The test system of a further data set is Rat fibroblast cells. As to the kind of experiment: Fibroblast proliferation, tritiated thymidine assay. In kind it is cell-based. As for the experimental part: Fibroblast Proliferation Assessment: A third experiment was completed to determined whether the adhesion reducing action of sodium narcistatin could be due to direct effects of sodium narcistatin to prevent fibroblast proliferation.
Proliferation of rat fibroblasts were assessed using standard tritiated thymidine assays as follows. Rat fibroblast cells were cultured in the presence of narcistatin in concentrations ranging from 0 to 1 mg/ml. The assay was completed in triplicate. Cells were pulsed at 24 h with 0.5 μCi 3H-Thymidine/well and incubated for 48 h at 37° C. At 48 h plates were pulled from the incubator and cells were harvested using a Brandel Cell Harvester. Filters with collected cells were washed 12× with 200 μl of ice cold distilled water). Fiberglass filers containing cells were placed into scintillation vials with 4 ml of ScintSafe Econo2 scintillation fluid. Radioactivity measured using a scintillation counter

In data set [5] the test system is splenic adhesions in the peritoneal cavity of rats with inflammatory arthritis. As to the kind of experiment: Adhesion formation in rats with CFA-induced inflammatory arthritis (gross observation and adhesion scoring).

Turning to `O=C(c1ccccc1)c1ccc2n1CCC2C(=O)O` (centres unmarked) [Ketorolac, reference compound], the adhesion formation/reformation entry in [1] was “reduces adhesion formation”.
Take `O=C1N[C@@H]2C(=C[C@H](O)[C@@H](O)[C@H]2O)c2cc3c(c(O)c21)OCO3` [Narciclasine, narciclasine]: the anticancer properties entry in the data set on tumor growth is given as “anticancer properties”.
As to `O=C1N[C@H]2[C@H](O)[C@H](O)[C@@H](O)[C@H](O)[C@@H]2c2cc3c(c(O)c21)OCO3` [Pancratastatin], in the data set with Japanese encephalitis, the survival rate result is given as “up to 100%”. Besides, the “activity against the parasite” value in [2] was “activity”. For the same molecule, in the data set on tumor growth (relative to sodium narcistatin), the “potency in inhibiting tumor growth” value is “more potent than sodium narcistatin”.
As to `O=C1N[C@@H]2C(=C[C@H](O)[C@H]3OP(=O)(O)O[C@H]32)c2cc3c(c(O)c21)OCO3` [sodium narcistatin], the tolerability result in the data set on arthritic rats (arthritic animals, 4.5 mg/Kg) is “tolerate the drug well”. Further, in the data set with arthritic rats (vehicle- versus narcistatin-treated arthritic rats), the “body weights, grooming, feeding and drinking behavior” value is “no differences”. Besides, in [3] (1 or 10 μg/ml, 24 h), the “production of IFN-γ” value is listed as “reduced”, the “production of IL-1” value was “reduced” and the “production of IL-2” value is given as “reduced”. In addition, the “production of Con-A induced IFN-α” value in data set [3] (summary sentence b104) is given as “reduced”. In addition, in data set [4], the “production of IL-1 (IL-1β)” value is “reduced” and the “production of TNF-α” value is “reduced”. The “inhibition of fibroblast proliferation in vitro (FIG. 6)” value in the data set on Rat fibroblast cells (0 to 1 mg/ml) is “potent inhibitor; also recorded: dose dependent”. In addition, the “reduction of fibroblast proliferation” value in the data set with Rat fibroblast cells (at 0.001 mg/ml) came out at 50%. The “fibroblast proliferation reduced to” value in the data set with Rat fibroblast cells (at 0.01 mg/ml) is ~0%. Also, the “number of adhesions in the thoracic and abdominal cavities” value in [5] (arthritic animals, compared to untreated or vehicle-treated arthritic animals) is given as “dramatically reduced”. The “splenic adhesion development in peritoneal cavity (FIG. 2)” value in [5] (arthritic rats, 4.5 mg/Kg intraperitoneal, day 10 to day 28 post-immunization) is reported as “little to no adhesions”. Further, the “formation of dense fibrous connective tissue covering over the spleen and pancreas (adhesion scoring, FIG. 3)” value in data set [5] (arthritic rats, 4.5 mg/Kg intraperitoneal, blinded subjective scoring) is listed as “largely prevented”.

B1: IL-10: anti-inflammatory cytokine (protein, UniProt P22301 19-178, looked up)
Interleukin-10: SPGQGTQSENSCTHFPGNLPNMLRDLRDAFSRVKTFFQMKDQLDNLLLKESLLEDFKGYLGCQALSEMIQFYLEEVMPQAENQDPDIKAHVNSLGENLKTLRLRLRRCHRFLPCENKSKAVEQVKNAFNKLQEKGIYKAMSEFDIFINYIEAYMTMKIRN
Take B1: the adhesion formation/reformation result in data set [1] is reported as “reduces adhesions; also recorded: limited”.
